Measured values from US20090062240A1, “Pharmaceutical combinations containing an inhibitor of platelet aggregation and a fibrate” (Fournier Laboratories Ireland Limited, priority 2004, published 2009).

System: rat platelet aggregation
Experiment: Ex-vivo rat platelet aggregation induced by arachidonic acid after oral treatment (Born's method, PRP)
Assay type: in vivo
Conditions: for % aggregation upon addition of 1 mM arachidonic acid: rat PRP, mean, n = 8; for reduction in platelet aggregation (in words): 1 mM arachidonic acid
Experimental: A study was carried out to assess the effect of a combination of a fibrate (fenofibrate) and aspirin on platelet aggregation in this study, fenofibrate and aspirin were co-administered to rats by the oral route (p.o.) and the effects on arachidonic acid-induced platelet aggregation were observed.
40 male OFA-SD (IOPS Caw) rats (C.River, France), weighing in the target range of 300 to 350 g, were included in the study.
They were housed in a temperature (19.5-24.5° C.) and relative humidity (45-65%) controlled room with a 12-h light/dark cycle, with ad libitum access to filtered tap-water and standard pelleted laboratory chow (SAFE, France) throughout the study. Upon receipt at animal facilities, they were housed 4 per cage and at least a 5-day acclimatization period was observed. Animals were individually identified on the tail.
The animals of this study were split into 5 groups of 8 animals as follows:
Group 2: Fenofibrate, 300 mg/kg, p.o.×10 days
Group 3 Aspirin 3 mg/kg, p.o.×1 day
Group 4: Fenofibrate, 300 mg/kg, p.o×10 days+Aspirin 3 mg/kg, p.o.×1 day
Group 5: Aspirin 30 mg/kg, p.o.×1 day
At the end of the acclimatization period, rats were identified on the tail and divided into 10 boxes of 4 rats.
They were then weighed and treated orally once a day during ten consecutive days with the vehicle (1% methylcellulose aqueous solution) or the test substance fenofibrate. On the last day of treatment, the animals were also treated with aspirin as described above. Aspirin (acetyl saliclylic acid) was obtained from Sigma, France and fenofibrate was supplied by Laboratoires Fournier, France. Test substances and the vehicle were administered by p.o. route once a day, in a volume of 5 ml/kg adjusted to the animal weight measured every day before administration.
On the last day of treatment (day 10), 2 hours after the oral gavage, rats were anaesthetised with isoflurane, and blood samples were collected from the abdominal aorta into plastic tubes containing heparin.
PRP (platelet-rich plasma) was then produced by centrifuging the blood obtained at 250 g for 10 minutes using a GPKR centrifuge (Beckman, France). Then samples were then centrifuged again at 2000 g for 10 minutes to obtain the platelet-poor plasma (PPP).
After a platelet count, each PRP sample was adjusted to 6×10^8 platelets/mL with the needed volume of homologous PPP (using T540 Cell Counter, Beckman, France).
Platelet aggregation was recorded using Born's method (Born, Nature, 1962, 194, 927-929) with 0.3 mL of the platelet suspension in disposable glass cuvettes placed in the turbidometric aggregometer (Chrono-Dual 440 aggregometer, Beckman Coulter, France) and stirred at 1100 rev.min^−1 at 37° C.
Platelet aggregation was induced by Arachidonic acid [AA] for each PRP sample tested.
Results were reported as the aggregation amplitude measured in mm and expressed as percentage of maximal aggregation.
Statistical analysis consisted in a one-way analysis of variance followed by multiple comparisons versus the vehicle group (Dunnett's test) on % aggregation values. Where the equal variance test failed, a Kruskall-Wallis one-way analysis of variance on ranks was proposed. A difference is considered significant for p<0.05.

Structure (SMILES): CC(=O)Oc1ccccc1C(=O)O [Aspirin, Acetylsalicylic acid]
- % aggregation upon addition of 1 mM arachidonic acid (Aspirin 3 mg/kg p.o. x 1 day, blood 2 h after gavage): 85.0%
- % aggregation upon addition of 1 mM arachidonic acid (Aspirin 30 mg/kg p.o. x 1 day, p < 0.05 vs Control): 0.4%
- reduction in platelet aggregation (in words) (aspirin alone at 3 mg/kg): no reduction in platelet aggregation

Structure (SMILES): CC(C)OC(=O)C(C)(C)Oc1ccc(C(=O)c2ccc(Cl)cc2)cc1 [Fenofibrate, 2-[4-(4-chlorobenzoyl)phenoxy]-2-methyl-propanoic acid, 1-methylethyl ester]
- % aggregation upon addition of 1 mM arachidonic acid (Fenofibrate 300 mg/kg p.o. x 10 days, blood 2 h after last gavage): 94.2%
- reduction in platelet aggregation (in words) (fenofibrate alone (300 mg/kg)): no reduction in platelet aggregation
